Laboratory results taken from US20100251436A1, “METHOD FOR GROWING SUGARCANE” (SYNGENTA CROP PROTECTION, INC., priority 2007, published 2010).

Test system: sugar cane Variety RB 86-7515
Test: Greenhouse pot test of formulated agrochemicals on vigour (tillers, plant height, leaf width, culm diameter)
Conditions: for number of tillers in comparison with the control / plant height in comparison with the control: greenhouse, rate of the respective example
Description: 1) carretel with one bud treated with abamectin 2) carretel with one bud treated with abamectin+15% v/v of polymer 3) stalk with 3 buds untreated 4) carretel with one bud untreated 5) carretel with one bud untreated+15% v/v of polymer 6) stalk with 3 buds treated with abamectin.
Twenty 1 L pots were filled with 16 L of clay soil, 1.6 L of sand and 8 g of nitrogen, 28 g of phosphorus (P2O5) and 16 g of potassium (K2O). Six carretels of 4 cm length with only one bud were planted in each pot (treatments 1, 2, 4 and 5). Two stalks with three buds were planted in each control pot (treatments 3 and 6) to simulate conventional planting. A layer of 3 cm of soil was used to cover the carretels. […] The stalks were treated simulating a furrow application at 100 L.ha^−1 of slurry. Experimental design adopted was randomized complete block with four replications. The pots were maintained with adequate moisture during the test. Evaluations of: plant height, leaf width, culm diameter and number of tillers were done at 20, 30 and 42 days after planting.

| Compound | number of tillers in comparison with the control (result in words) | plant height in comparison with the control (result in words) | increase in "quality" (result in words, not apparent from the measured parameters) | Tillers (abamectin 100 g ai/ha, carretel with one bud, dipped in slurry 3 min, 42 days after planting) |
| --- | --- | --- | --- | --- |
| CN/C(=N\[N+](=O)[O-])NCc1cnc(Cl)s1 [Clothianidin, clothianidin] | increased | slight reduction |  |  |
| N#Cc1nn(-c2c(Cl)cc(C(F)(F)F)cc2Cl)c(N)c1[S+]([O-])C(F)(F)F (centres unmarked) [Fipronil, fipronil] | increased | decreased |  |  |
| O=[N+]([O-])NC1=NCCN1Cc1ccc(Cl)nc1 [Imidacloprid] | increase |  |  |  |
| CN1COCN(Cc2cnc(Cl)s2)/C1=N\[N+](=O)[O-] [Thiamethoxam, thiamethoxam] | increased | reduced | greater than the other treatments |  |
| abamectin | increase | decrease |  | 14 number |
